From US8841319B2, “Use of 3-(indolyl)- or 3-(azaindolyl)-4-arylmaleimide derivatives in leukemia management” (Johannes Gutenberg-Universitat Mainz, priority 2007, dated 2014)

Experiments:
[1] = tested on: murine 32D-FLT3-ITD cells; experiment: Apoptosis assay by cell cycle analysis (sub-G1 fraction) in 32D-FLT3-ITD cells; format: cell-based; conditions: 48 h incubation
Text: A human FLT3-ITD construct, subcloned into the pAL expression vector under control of the 5′ long terminal repeat (LTR) of the Moloney murine sarcoma virus (MoMSV) and the plasmid pMAM/BSD were used as previously described (Mizuki, M., Schwable, J., Steur, C., Choudhary, C., Agrawal, S., Sargin, B., Steffen, B., Matsumura, I., Kanakura, Y., Bohmer, F. D., Muller-Tidow, C., Berdel, W. E. & Serve, H. (2003) Suppression of myeloid transcription factors and induction of STAT response genes by AML-specific FLT3 mutations. Blood, 101, 3164-3173). The N676K point mutation was introduced into this FLT3-ITD construct (Medigenomix Martinsried, Germany). […]
The induction of apoptosis in murine 32D-FLT3-ITD cells measured by sub-G1-fraction in cell cycle analysis upon 48 h incubation with two 3-(indolyl)- and 3-(azaindolyl)-4-phenylmaleimide derivatives (DHF125 and DHF150) was evaluated.

FLT3-WT cells = experiment: Apoptosis assay by cell cycle analysis (sub-G1 fraction) in FLT3-WT cells; format: cell-based; conditions: up to 10 μM, 48 h incubation
STAT5, ERK and AKT = experiment: Western blotting of downstream kinase targets; format: cell-based
Protocol: 2×10^6 cells were incubated in the presence of various inhibitor concentrations alone and in combination for 1 hour at 37° C. Preparation of cellular lysates was performed as described previously (Kindler, T., Breitenbuecher, F., Kasper, S., Estey, E., Giles, F., Feldman, E., Ehninger, G., Schiller, G., Klimek, V., Nimer, S. D., Gratwohl, A., Choudhary, C. R., Mueller-Tidow, C., Serve, H., Gschaidmeier, H., Cohen, P. S., Huber, C. & Fischer, T. (2005) Identification of a novel activating mutation (Y842C) within the activation loop of FLT3 in patients with acute myeloid leukemia (AML). Blood, 105, 335-340). Protein lysates were subjected to SDS polyacrylamid gel electrophoresis (SDS-PAGE) and blotted onto nitrocellulose membrane (Amersham, Freiburg, Germany) as previously described (Kindler, et al 2003). The following antibodies were used: anti-phospho-FLT3, anti-phospho-STAT5 (pTyr694/699), anti-phospho AKT (pSer473), anti-phospho ERK (pThr202/pTyr204) (all Cell Signaling Technology™, Frankfurt, Germany), anti-FLT3, anti-AKT and anti-STAT5 (Santa Cruz, Heidelberg, Germany), and anti-β-Actin (ICN). Densitometric analysis was performed using the program Gel-Pro Analyzer®.

FLT3-kinase = target: T1, FLT3-kinase (Homo sapiens, UniProt P36888); experiment: FLT3-kinase assay at two ATP concentrations; format: biochemical
T1 sequence (P36888 27-993): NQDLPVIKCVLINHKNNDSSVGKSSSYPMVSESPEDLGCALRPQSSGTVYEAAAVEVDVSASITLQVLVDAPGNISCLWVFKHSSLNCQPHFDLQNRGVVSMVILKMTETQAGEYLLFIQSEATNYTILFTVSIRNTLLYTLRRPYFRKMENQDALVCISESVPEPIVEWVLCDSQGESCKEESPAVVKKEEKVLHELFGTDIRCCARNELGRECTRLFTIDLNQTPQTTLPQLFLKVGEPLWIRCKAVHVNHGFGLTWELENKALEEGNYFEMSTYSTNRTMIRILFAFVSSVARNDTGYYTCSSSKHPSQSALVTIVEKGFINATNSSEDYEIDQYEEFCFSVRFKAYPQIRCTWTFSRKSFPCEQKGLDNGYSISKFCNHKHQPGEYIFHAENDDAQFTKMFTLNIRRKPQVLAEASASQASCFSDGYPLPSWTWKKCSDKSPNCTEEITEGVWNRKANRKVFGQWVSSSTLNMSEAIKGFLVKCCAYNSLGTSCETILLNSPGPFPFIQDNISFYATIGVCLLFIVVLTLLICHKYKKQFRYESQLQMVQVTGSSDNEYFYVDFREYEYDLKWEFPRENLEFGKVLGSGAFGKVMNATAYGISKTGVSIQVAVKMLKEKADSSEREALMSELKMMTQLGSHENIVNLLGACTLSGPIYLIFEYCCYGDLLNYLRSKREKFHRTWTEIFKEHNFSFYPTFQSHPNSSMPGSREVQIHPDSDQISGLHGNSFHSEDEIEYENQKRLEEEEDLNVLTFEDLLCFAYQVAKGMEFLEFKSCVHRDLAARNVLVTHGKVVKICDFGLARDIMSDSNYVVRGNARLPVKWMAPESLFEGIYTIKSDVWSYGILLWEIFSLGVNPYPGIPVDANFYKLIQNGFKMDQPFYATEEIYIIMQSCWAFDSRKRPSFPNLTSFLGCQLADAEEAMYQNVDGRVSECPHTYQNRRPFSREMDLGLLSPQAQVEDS

FLT3 = experiment: Immunoprecipitation of FLT3 (anti-FLT3 and anti-P-Tyr); format: cell-based
FLT3-ITD-positive cells = experiment: Drug combination with chemotherapy, Chou-Talalay plot (CompuSyn); format: cell-based
Protocol: The chemotherapeutic agents cytarabine and daunorubicine were dissolved and diluted in aqua dest. Equivalent doses of DMSO were added when used for combination treatment.
For definition of synergism and/or antagonism in drug combinations we used the CompuSyn™ software (Chou, T C and Martin, N; ComboSyn, Inc. Paramus, N. J., USA) as previously described (Chou, T. C. (2006) Theoretical basis, experimental design, and computerized simulation of synergism and antagonism in drug combination studies. Pharmacol Rev, 58, 621-681).

[2] = tested on: primary AML blasts harboring the FLT3-ITD mutation; experiment: Apoptosis (sub-G1 fraction, FACS) in primary AML blasts; format: cell-based, human; conditions: primary AML blasts with FLT3-ITD mutation, 72 h incubation
Protocol: Transfected murine 32D cells (1×10^5 cells/well) were incubated in 2 ml RPMI medium supplemented with 10% FCS with different inhibitor concentrations for 48 hours at 37° C. Primary human cells (2×10^5 cells/well) were incubated for 72 hours at 37° C. After incubation, cells were washed with ice cold PBS, pelleted and mixed with 300 μl of propidium-iodide-buffer (containing 50 μg/ml PI in 0.1% sodium citrate plus 0.1% Triton X 100, Sigma) for 30 minutes at 4° C. Cell cycle analysis was performed as described previously (Nicoletti, I., Migliorati, G., Pagliacci, M. C., Grignani, F. & Riccardi, C. (1991) A rapid and simple method for measuring thymocyte apoptosis by propidium iodide staining and flow cytometry. J Immunol Methods, 139, 271-279) using a FACSCanto™ flow cytometer (BD Biosciences, Heidelberg, Germany).
BM- and PB-samples with heparin as anticoagulant were obtained from AML patients or donors with no evidence of malignant bone marrow infiltration after informed consent in a study approved by the local ethics committee. Mononuclear cells (MNC) were isolated immediately by means of Ficoll-Hypaque (Seromed, Berlin, Germany) density gradient centrifugation. […]
Primary AML blasts at primary diagnosis were incubated for 72 h with both 3-(indolyl)- and 3-(azaindolyl)-4-phenylmaleimide derivatives. Induction of apoptosis was measured by sub-G1-fraction in FACS analysis. […]

[3] = tested on: non-malignant bone marrow cells; experiment: Colony assay of non-malignant bone marrow cells; conditions: day 10
Protocol: Bone-marrow MNCs were isolated as indicated above. Bone marrow samples were obtained from patients in CR after NHL or AML treatment or without evidence of any malignant bone marrow infiltration. 1×10^5 cells were plated in 1.1 ml Methocult™ (GF H4534) “Complete” Methylcellulose Medium with recombinant cytokines (StemCell Technologies, Vancouver, Canada) and incubated for 10 days at 37° C. in duplicate. Colony formation was counted on day 10.

colony formation ([3]; 10 μM)	reduction in colony formation ([3]; up to 5 μM)	Structure (SMILES)	sub-G1-cell fraction (induction of apoptosis) [1]	induction of apoptosis (FLT3-WT cells)	phosphorylation of downstream-targets STAT5, ERK and AKT (STAT5, ERK and AKT)	inhibition of FLT3-kinase (FLT3-kinase)	phosphorylation of FLT3 (FLT3)	effect in combination with cytarabine (FLT3-ITD-positive cells)	effect in combination with daunorubicine (FLT3-ITD-positive cells)	induction of apoptosis, percentage of apoptotic cells on top of ground apoptosis [2]
–	–	COc1cc(C2=C(c3c[nH]c4ccccc34)C(=O)NC2=O)cc(OC)c1OC [DHF125, 3-(Indole-3-yl)-4-(3,4,5-trimethoxyphenyl)-1H-pyrrole-2,5-dione]	statistically very significant dose-dependent increase	No significant induction of apoptosis	dephosphorylation	ATP competitive inhibition	dephosphorylation	synergistic effects	synergistic effects	10-17%
reduced to a minimum	no significant reduction	COc1cc(C2=C(c3c[nH]c4ncccc34)C(=O)NC2=O)cc(OC)c1OC [DHF150, 3-(7-Azaindol-3-yl)-4-(3,4,5-trimethoxyphenyl)-1H-pyrrole-2,5-dione]	statistically very significant dose-dependent increase	No significant induction of apoptosis	dephosphorylation	ATP competitive inhibition	dephosphorylation	synergistic effects	synergistic effects	17-28%
